The values below come from patent US12286443B2, “Bycyclic JAK inhibitors and uses thereof” (Insilico Medicine IP Limited, priority 2019, dated 2025).

The IC50 is the concentration at which inhibition is half-maximal.

Assay type in all cases: biochemical
One test has as its target T1, JAK1 (Homo sapiens, UniProt P23458).
T1 construct: purchased Invitrogen PV4775
The test can be described thus: Inhibition of JAK1 kinase, LANCE Ultra TR-FRET assay. The note with it: 2 nM JAK1, 2x ATP 76 μM, 15 min pre-incubation, 90 min reaction, 23° C. On the procedure: (§1) Exemplary compounds were assayed to determine potency in inhibiting activity of JAK1-3 and TYK2 kinases by determining IC50 values.
(§2) The sources of test materials and equipment are as follows: JAK1 (Invitrogen, Cat. No PV4775), JAK2 (Invitrogen, Cat. No PV4210), JAK3 (Invitrogen, Cat. No PV4080), TYK2 (Invitrogen, Cat. No PR8440C), ATP (Sigma, Cat. No. A7699-1G), DMSO (Sigma, Cat. No. D2650), DTT (Sigma, Cat. No. 43815), 384 wells_compound plate (Greiner, Cat. No. 781280), 384 wells_assay plate (Perkin Elmer, Cat. No. 6007299), LANCE Ultra ULight™-JAK-1 peptide (Perkin Elmer, Cat. No. TRF0121), LANCET™ Eu-W1024 Anti-phosphotyrosine (PT66) (Perkin Elmer, Cat. No. AD0069), LANCET™ Detection Buffer(Perkin Elmer, Cat. No. CR97-100).
(§3) The concentrations of test compounds varied from 100 μM to 1.7 nM with 3-fold dilution, 11 points, in duplicates while the concentrations of the reference compound, Tofacitinib, varied from 1 μM to 0.017 nM with 3-fold dilution, 11 points, in duplicates.
(§4) The assay buffer contained 50 mM HEPES (pH 7.5), 0.01% Brij-35, 10 mM MgCl2, 1 mM EDTA, 2 mM DTT. Incubations were carried out at 23° C.
(§5) Prior to the assay, enzyme, peptide substrate and serially diluted test compounds were pre-incubated together in assay buffer (5 μL) for 15 minutes (peptide substrate concentration: 50 nM; JAK enzyme concentrations: 2 nM JAK1; […]; […] and 4 nM TYK2). And the assay was initiated by the addition of 5 μL assay buffer containing 2× final ATP concentration (these are the 2×ATP concentrations: 76 μM JAK1; 24 μM JAK2; 8 μM JAK3 and 30 μM TYK2). Following the 90-minute incubation, antibody conjugated with Eu is dissolved in detection buffer to add into wells and then incubated for 60 minutes. The 10 μL detection buffer contains EDTA to stop the enzymatic reaction. The plate is analyzed by Perkin Elmer Envision on TR-FRET mode. The high ratio of 665/615 represents no inhibition of kinase reaction while the low ratio of 665/615 represents complete inhibition of kinase reaction.
(§6) Curves are fit by XLFIT5 as inhibition rate % vs. log [compound concentration] using 4 parameters logistic model 205.
(§7) In the table, “A” indicates an IC50 of less than 100 nM, “B” indicates an IC50 range from 100 nM to 500 nM; “C” indicates an IC50 range from 500 nM to 2 μM; and “D” indicates an IC50 greater than 2 μM. Also, “na” indicates data is not available.
(In TR-FRET formats the signal depends on donor and acceptor labels being close together.)

Another test deals with T2, JAK2 (Homo sapiens, UniProt O60674).
T2 construct: purchased Invitrogen PV4210
T2 sequence (O60674 whole entry): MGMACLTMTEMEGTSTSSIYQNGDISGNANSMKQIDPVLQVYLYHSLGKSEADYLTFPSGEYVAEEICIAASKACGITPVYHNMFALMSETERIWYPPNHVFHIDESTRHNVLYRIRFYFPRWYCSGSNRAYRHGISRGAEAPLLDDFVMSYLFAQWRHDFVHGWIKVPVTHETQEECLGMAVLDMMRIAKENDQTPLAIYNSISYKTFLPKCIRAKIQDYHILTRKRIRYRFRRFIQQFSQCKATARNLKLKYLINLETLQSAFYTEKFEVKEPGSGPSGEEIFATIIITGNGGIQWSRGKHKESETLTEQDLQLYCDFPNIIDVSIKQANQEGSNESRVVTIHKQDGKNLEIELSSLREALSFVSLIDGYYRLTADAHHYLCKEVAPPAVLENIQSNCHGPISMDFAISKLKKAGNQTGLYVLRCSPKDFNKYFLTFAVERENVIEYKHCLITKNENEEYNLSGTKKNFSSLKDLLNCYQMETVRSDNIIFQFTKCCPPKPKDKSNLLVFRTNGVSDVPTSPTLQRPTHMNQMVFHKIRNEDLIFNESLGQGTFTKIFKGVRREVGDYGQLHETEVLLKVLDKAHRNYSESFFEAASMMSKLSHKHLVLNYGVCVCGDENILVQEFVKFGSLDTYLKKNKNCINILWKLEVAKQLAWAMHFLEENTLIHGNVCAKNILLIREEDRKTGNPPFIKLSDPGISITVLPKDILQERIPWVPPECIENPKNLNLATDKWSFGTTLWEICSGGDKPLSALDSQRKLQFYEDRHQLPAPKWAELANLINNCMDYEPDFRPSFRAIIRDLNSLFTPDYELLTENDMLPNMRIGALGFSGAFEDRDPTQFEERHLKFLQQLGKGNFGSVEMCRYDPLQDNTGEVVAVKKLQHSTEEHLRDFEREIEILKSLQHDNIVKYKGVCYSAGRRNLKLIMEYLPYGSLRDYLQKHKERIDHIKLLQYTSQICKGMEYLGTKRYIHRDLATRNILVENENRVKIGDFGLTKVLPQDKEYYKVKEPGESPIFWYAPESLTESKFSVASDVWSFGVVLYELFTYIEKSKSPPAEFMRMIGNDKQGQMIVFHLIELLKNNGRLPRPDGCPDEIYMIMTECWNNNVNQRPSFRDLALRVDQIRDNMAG
Description: Inhibition of JAK2 kinase, LANCE Ultra TR-FRET assay. The note with it: 2x ATP 24 μM, 15 min pre-incubation, 90 min reaction, 23° C. On the procedure: as §1, §2, §3, §4, §5, §6, §7

The target of a further test is T3, JAK3 (Homo sapiens, UniProt P52333).
T3 construct: purchased Invitrogen PV4080
T3 sequence (P52333 1-1124): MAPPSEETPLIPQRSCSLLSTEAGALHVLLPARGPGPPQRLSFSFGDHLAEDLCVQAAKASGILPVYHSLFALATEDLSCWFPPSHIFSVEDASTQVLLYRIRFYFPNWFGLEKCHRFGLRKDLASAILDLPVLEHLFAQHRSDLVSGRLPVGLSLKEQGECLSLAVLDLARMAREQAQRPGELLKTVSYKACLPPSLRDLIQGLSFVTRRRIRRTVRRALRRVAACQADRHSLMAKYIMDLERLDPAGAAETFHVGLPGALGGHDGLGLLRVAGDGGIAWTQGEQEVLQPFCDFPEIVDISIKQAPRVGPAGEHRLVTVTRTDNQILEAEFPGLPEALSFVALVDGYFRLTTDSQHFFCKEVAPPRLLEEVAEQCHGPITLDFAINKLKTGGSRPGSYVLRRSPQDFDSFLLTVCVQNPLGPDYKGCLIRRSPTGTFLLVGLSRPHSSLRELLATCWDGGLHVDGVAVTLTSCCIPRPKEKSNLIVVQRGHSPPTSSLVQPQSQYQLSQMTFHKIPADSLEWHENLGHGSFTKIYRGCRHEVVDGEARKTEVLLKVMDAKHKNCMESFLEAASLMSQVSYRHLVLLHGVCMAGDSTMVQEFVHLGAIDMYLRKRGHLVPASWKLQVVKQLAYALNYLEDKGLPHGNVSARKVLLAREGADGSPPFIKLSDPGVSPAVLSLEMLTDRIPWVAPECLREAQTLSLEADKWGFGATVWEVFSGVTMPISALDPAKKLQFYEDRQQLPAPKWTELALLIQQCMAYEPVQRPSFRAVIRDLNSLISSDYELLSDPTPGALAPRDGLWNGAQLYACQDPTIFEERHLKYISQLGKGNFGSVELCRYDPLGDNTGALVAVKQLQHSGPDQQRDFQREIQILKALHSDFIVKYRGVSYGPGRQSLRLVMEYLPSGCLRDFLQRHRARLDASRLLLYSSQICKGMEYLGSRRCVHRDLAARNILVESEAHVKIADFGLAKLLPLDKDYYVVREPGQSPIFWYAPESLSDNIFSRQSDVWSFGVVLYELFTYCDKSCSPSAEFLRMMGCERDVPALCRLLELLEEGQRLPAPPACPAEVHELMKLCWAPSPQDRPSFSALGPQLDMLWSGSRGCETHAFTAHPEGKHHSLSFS
Description: Inhibition of JAK3 kinase, LANCE Ultra TR-FRET assay. The conditions noted are these: 2x ATP 8 μM, 15 min pre-incubation, 90 min reaction, 23° C. On the procedure: as §1, §2, §3, §4, §5, §6, §7

Another test has as its target T4, TYK2 (Homo sapiens, UniProt P29597).
T4 construct: purchased Invitrogen PR8440C
The test can be described thus: Inhibition of TYK2 kinase, LANCE Ultra TR-FRET assay. The conditions noted are these: 4 nM TYK2, 2x ATP 30 μM, 15 min pre-incubation, 90 min reaction, 23° C., read-out: tyk IC50. On the procedure:
as §1, §2, §3, §4, §5, §6, §7

T4 sequence (P29597 whole entry): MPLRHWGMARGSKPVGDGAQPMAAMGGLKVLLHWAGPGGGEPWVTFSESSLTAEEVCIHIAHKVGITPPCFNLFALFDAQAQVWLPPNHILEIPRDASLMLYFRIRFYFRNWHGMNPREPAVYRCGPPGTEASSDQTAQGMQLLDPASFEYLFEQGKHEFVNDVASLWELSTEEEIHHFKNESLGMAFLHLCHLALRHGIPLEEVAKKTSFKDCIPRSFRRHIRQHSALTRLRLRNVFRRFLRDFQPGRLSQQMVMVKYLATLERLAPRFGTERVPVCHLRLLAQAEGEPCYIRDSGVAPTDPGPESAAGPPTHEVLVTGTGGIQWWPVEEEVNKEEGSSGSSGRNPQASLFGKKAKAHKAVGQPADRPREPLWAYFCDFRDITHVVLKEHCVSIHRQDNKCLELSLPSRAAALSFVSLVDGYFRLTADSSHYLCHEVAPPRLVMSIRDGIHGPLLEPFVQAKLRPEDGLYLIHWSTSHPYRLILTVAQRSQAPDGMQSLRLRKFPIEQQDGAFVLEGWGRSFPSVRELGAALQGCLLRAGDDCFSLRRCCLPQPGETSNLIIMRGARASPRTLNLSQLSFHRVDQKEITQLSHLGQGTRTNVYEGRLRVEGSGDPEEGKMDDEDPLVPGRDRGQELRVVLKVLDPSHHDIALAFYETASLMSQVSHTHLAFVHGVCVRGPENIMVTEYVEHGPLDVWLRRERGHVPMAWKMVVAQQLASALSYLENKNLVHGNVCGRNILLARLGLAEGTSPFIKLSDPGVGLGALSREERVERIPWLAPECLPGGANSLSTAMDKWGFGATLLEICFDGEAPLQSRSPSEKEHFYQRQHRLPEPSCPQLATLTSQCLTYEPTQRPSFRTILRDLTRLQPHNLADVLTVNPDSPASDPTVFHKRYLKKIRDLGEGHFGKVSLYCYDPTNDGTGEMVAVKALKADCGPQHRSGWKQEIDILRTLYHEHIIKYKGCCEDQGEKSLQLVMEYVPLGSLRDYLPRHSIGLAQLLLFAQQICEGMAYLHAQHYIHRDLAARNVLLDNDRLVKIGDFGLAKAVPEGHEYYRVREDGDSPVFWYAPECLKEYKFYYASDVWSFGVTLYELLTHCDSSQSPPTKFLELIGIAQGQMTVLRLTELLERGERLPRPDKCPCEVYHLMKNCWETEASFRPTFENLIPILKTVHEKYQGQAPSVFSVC
T1 sequence (P23458 whole entry): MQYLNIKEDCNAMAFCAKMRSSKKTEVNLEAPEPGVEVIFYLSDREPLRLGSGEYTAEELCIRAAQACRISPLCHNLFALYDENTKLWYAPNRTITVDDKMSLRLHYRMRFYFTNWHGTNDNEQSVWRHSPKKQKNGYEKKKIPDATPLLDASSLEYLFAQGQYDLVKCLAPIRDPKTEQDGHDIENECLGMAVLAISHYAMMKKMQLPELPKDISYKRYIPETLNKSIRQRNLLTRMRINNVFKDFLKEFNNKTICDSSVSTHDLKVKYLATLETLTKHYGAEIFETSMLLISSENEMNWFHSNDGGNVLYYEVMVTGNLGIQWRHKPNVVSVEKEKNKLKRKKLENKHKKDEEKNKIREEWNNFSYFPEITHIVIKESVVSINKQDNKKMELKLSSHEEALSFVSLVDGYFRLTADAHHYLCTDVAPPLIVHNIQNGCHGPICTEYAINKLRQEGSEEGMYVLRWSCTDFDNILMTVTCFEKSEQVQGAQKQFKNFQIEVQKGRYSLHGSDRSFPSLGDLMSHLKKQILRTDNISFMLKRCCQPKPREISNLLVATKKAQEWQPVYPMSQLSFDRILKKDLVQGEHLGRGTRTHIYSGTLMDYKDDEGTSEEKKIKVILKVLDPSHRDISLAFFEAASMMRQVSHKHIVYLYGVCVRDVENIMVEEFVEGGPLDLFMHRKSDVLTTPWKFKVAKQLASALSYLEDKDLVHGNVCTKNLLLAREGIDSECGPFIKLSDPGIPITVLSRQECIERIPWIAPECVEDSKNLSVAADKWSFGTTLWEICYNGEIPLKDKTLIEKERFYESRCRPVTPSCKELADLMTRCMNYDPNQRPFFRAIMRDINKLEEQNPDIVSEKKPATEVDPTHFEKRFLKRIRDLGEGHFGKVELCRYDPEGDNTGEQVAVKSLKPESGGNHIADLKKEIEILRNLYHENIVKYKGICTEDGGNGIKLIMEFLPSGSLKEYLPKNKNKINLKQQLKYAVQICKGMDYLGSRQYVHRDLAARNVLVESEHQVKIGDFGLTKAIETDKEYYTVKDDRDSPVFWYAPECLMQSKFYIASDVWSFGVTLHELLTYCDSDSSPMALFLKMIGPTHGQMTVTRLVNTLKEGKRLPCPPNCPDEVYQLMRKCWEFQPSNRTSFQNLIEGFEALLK

For `Cc1cnc(CCNC(=O)c2noc3c2CN(c2ncnc4[nH]ccc24)CC3)o1` [Compound 139], the IC50 against JAK1, on JAK2, against JAK3 and at TYK2 was greater than 2 µM in each case.

With `O=C(NCCCC(F)(F)F)c1noc2c1CN(c1ncnc3[nH]ccc13)CC2` [Compound 154], the IC50 is 0.1 to 0.5 µM against JAK1, 0.1 to 0.5 µM against JAK2, less than 0.1 µM against JAK3 and greater than 2 µM on TYK2.

On to `O=C(NCC1CC1)c1noc2c1CN(c1ncnc3[nH]ccc13)CC2` [Compound 180], for which the IC50 was 0.1 to 0.5 µM on JAK1, 0.1 to 0.5 µM against JAK2, less than 0.1 µM against JAK3 and greater than 2 µM on TYK2.

In the case of `O=C(NCCC(F)(F)F)c1noc2c1CN(c1ncnc3[nH]ncc13)CC2` [Compound 189], the IC50 is 0.1 to 0.5 µM on JAK1, greater than 2 µM on JAK2, 0.1 to 0.5 µM against JAK3 and greater than 2 µM on TYK2.

In the case of `CN(C)C1CN(CCNC(=O)c2noc3c2CN(c2ncnc4[nH]ccc24)CC3)C1` [Compound 160], the 50% inhibitory concentration (IC50) at JAK1 was 0.5 to 2 µM; at JAK2 it was greater than 2 µM; against JAK3, 0.5 to 2 µM; at TYK2, greater than 2 µM.

Regarding `O=C(NC[C@@H]1CC[C@H]1O)c1noc2c1CN(c1ncnc3[nH]ccc13)CC2` (relative stereo) [Compound 150-1], the IC50 is 0.5 to 2 µM at JAK1, 0.5 to 2 µM on JAK2, 0.1 to 0.5 µM against JAK3 and greater than 2 µM on TYK2.

Take `O=C(NCCC(F)(F)F)c1nn(-c2ccccc2)c2c1CN(c1ncnc3[nH]ccc13)CC2` [Compound 114]: the IC50 on JAK1 was 0.1 to 0.5 µM; against JAK2, 0.5 to 2 µM; against JAK3, less than 0.1 µM; at TYK2, 0.5 to 2 µM.

As to `O=C(NCCC(F)(F)F)C1=NOC2CN(c3ncnc4[nH]ccc34)CC12` (centres unmarked) [Compound 187], the IC50 against JAK1 is 0.1 to 0.5 µM; on JAK2, 0.5 to 2 µM; at JAK3, 0.1 to 0.5 µM; at TYK2 it was greater than 2 µM.

As for `O=C(NCCC1(F)COC1)c1noc2c1CN(c1ncnc3[nH]ccc13)CC2` [Compound 147], the 50% inhibitory concentration (IC50) was 0.1 to 0.5 µM against JAK1, 0.1 to 0.5 µM on JAK2, 0.1 to 0.5 µM at JAK3 and greater than 2 µM on TYK2.

Consider `CN(C)S(=O)(=O)CCNC(=O)c1noc2c1CN(c1ncnc3[nH]ccc13)CC2` [Compound 156], for which the IC50 against JAK1 was 0.1 to 0.5 µM; on JAK2 it was 0.1 to 0.5 µM; at JAK3 it was 0.1 to 0.5 µM; at TYK2 it was greater than 2 µM.

On to `O=C(NCCCC1(O)CC1)c1noc2c1CN(c1ncnc3[nH]ccc13)CC2` [Compound 145], for which the IC50 against JAK1 was 0.1 to 0.5 µM; on JAK2 it was 0.5 to 2 µM; on JAK3, 0.1 to 0.5 µM; at TYK2 it was greater than 2 µM.

Consider `Cn1nc(C(=O)N[C@H]2C[C@H](C(=O)NCCC(F)(F)F)C2)c2c1CCN(c1ncnc3[nH]ccc13)C2` [Compound 124], for which the IC50 against JAK1 is 0.5 to 2 µM; at JAK2, greater than 2 µM; at JAK3, 0.5 to 2 µM; on TYK2, greater than 2 µM.

For the molecule `O=C(NC[C@@H]1CC[C@@H]1O)c1noc2c1CN(c1ncnc3[nH]ccc13)CC2` (relative stereo) [Compound 150-2], the IC50 against JAK1 is 0.1 to 0.5 µM; on JAK2, 0.1 to 0.5 µM; against JAK3, less than 0.1 µM; on TYK2 it was greater than 2 µM.

Take `COC(=O)[C@H]1C[C@H](NC(=O)c2nn(C)c3c2CN(c2ncnc4[nH]ccc24)CC3)C1` [Compound 121]: the IC50 against JAK1, against JAK2, against JAK3 and at TYK2 was greater than 2 µM in each case.

As to `O=C(NCCC1CC1)c1n[nH]c2c1CN(c1ncnc3[nH]ccc13)CC2` [Compound 138], the IC50 is 0.1 to 0.5 µM against JAK1, 0.1 to 0.5 µM at JAK2, less than 0.1 µM on JAK3 and 0.5 to 2 µM on TYK2.

Take `CNS(=O)(=O)CCNC(=O)c1noc2c1CN(c1ncnc3[nH]ccc13)CC2` [Compound 157]: the IC50 against JAK1 is less than 0.1 µM; at JAK2, 0.1 to 0.5 µM; against JAK3, less than 0.1 µM; on TYK2, greater than 2 µM.

`Cn1nc(C(=O)N[C@H]2C[C@H](CC#N)C2)c2c1CCN(c1ncnc3[nH]ccc13)C2` [Compound 128]: the IC50 was 0.5 to 2 µM at JAK1, 0.5 to 2 µM on JAK2, 0.5 to 2 µM against JAK3 and greater than 2 µM on TYK2.

For the molecule `CS(=O)(=O)N1CC(CNC(=O)c2noc3c2CN(c2ncnc4[nH]ccc24)CC3)C1` [Compound 168], the IC50 against JAK1 is 0.5 to 2 µM; at JAK2, 0.5 to 2 µM; on JAK3, 0.1 to 0.5 µM; on TYK2, greater than 2 µM.

On to `O=C(NCCC(F)(F)F)c1nn(CCc2cccnc2)c2c1CN(c1ncnc3[nH]ccc13)CC2` [Compound 106], for which the IC50 is greater than 2 µM on JAK1, greater than 2 µM on JAK2, 0.1 to 0.5 µM against JAK3 and greater than 2 µM at TYK2.

For `CS(=O)(=O)N1CCCC1CCNC(=O)c1noc2c1CN(c1ncnc3[nH]ccc13)CC2` (centres unmarked) [Compound 164], the IC50 at JAK1 was 0.5 to 2 µM; against JAK2, greater than 2 µM; at JAK3, 0.1 to 0.5 µM; on TYK2, greater than 2 µM.

Regarding `O=C(NCCC(F)(F)F)c1nn(CCCCc2ccccc2)c2c1CN(c1ncnc3[nH]ccc13)CC2` [Compound 116], the IC50 against JAK1 is 0.1 to 0.5 µM; against JAK2 it was greater than 2 µM; at JAK3, 0.1 to 0.5 µM; at TYK2, greater than 2 µM.

In the case of `O=C(NCCN1CCOCC1)c1noc2c1CN(c1ncnc3[nH]ccc13)CC2` [Compound 162], the IC50 against JAK1 is greater than 2 µM; against JAK2, greater than 2 µM; against JAK3, 0.5 to 2 µM; at TYK2 it was greater than 2 µM.

`N#Cc1ccc(-c2nn(CCO)c3c2CN(c2ncnc4[nH]ccc24)CC3)cc1` [Compound 120]: the 50% inhibitory concentration (IC50) against JAK2 was 0.1 to 0.5 µM; at JAK3 it was 0.5 to 2 µM.

Regarding `CCn1nc(C(=O)CC#N)c2c1CCN(c1ncnc3[nH]ccc13)C2` [Compound 119], the 50% inhibitory concentration (IC50) against JAK2 and on JAK3 was 0.5 to 2 µM in each case.
